Read-outs that look alike come from different tables or passages of the source.
Assays:
PRMT5/MEP50 = PRMT5/MEP50 (Homo sapiens (Human), UniProt O14744); assay: PRMT5 Biochemical Assay (PRMT5/MEP50 enzyme assay on peptide substrate, 3H-SAM Flashplate)
How it was run: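 Radiometric methylation of a biotin-tagged H4(1-15) peptide by human PRMT5/MEP50 from baculovirus/Sf9, with ³H-SAM incorporation read on streptavidin Flashplates. Buffer: Bicine pH 7.6, TCEP, BSG, Tween20; compound preincubated 30 min at 25 °C; stopped with 600 µM final unlabeled SAM. DMSO and SAH controls; IC50 from fitted % inhibition.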

[1] = tested on: symmetric di-methyl arginine in Z-138 cells; assay: Z-138 Methylation Assay (In Cell Western for symmetric di-methyl arginine and DNA content); type: cell-based; details: Homo sapiens, read-out: ICW EC50
How it was run: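 Z-138 cells (50,000 cells/mL) treated with compound 96 h at 37 °C, then fixed and stained for symmetric di-methyl arginine (800 nm) with DRAQ5 DNA counterstain (700 nm) on Licor Odyssey.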

Z-138 cell line = assay: Z-138 Proliferation Assay (Cell Titer Glo, 5 days); type: cell-based; details: Homo sapiens, 120 h, Z-138 cells, 5 days, read-out: Proliferation EC50
How it was run: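 Z-138 cells exposed 5 days at 37 °C, 5% CO2 to nine-point 3-fold dilutions (final top 20 μM, 0.2% DMSO), in triplicate. Viability read as ATP by CellTiter-Glo luminescence; IC50 from 4-parameter fit of normalized dose-response curves.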

PRMT5/MEP50, sequence (O14744 other isoform, or with tags, fused parts or gaps): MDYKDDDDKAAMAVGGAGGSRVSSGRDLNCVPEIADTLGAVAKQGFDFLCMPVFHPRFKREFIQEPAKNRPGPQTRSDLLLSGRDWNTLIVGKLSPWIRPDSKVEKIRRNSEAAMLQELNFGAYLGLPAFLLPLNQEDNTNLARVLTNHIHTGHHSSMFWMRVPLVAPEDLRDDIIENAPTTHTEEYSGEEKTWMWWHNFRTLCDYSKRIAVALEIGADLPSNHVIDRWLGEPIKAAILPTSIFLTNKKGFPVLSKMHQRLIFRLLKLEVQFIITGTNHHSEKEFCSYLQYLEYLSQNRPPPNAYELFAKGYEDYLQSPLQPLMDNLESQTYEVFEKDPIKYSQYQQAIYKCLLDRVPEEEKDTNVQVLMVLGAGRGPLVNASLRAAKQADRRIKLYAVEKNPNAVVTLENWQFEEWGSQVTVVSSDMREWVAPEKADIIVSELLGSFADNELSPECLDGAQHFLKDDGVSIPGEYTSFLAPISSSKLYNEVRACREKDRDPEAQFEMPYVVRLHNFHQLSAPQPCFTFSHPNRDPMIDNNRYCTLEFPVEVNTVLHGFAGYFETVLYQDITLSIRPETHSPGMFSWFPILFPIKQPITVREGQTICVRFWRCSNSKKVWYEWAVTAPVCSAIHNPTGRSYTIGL
PRMT5/MEP50, sequence (Q9BQA1 other isoform, or with tags, fused parts or gaps partner): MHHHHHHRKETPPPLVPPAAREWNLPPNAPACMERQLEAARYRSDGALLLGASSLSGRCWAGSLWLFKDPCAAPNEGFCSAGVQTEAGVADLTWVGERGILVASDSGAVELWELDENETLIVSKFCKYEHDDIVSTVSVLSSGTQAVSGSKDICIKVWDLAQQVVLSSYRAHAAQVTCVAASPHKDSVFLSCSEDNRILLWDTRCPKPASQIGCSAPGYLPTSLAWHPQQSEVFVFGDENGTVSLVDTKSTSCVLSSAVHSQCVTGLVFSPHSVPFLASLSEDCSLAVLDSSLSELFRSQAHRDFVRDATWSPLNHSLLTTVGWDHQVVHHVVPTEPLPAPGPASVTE

Row | Compound | IC50 (PRMT5/MEP50) | EC50 [1] | IC50 (PRMT5/MEP50; PRMT5 biochemical assay) | EC50 ([1]; In Cell Western methylation) | EC50 (Z-138 cell line) | EC50 (Z-138 cell line; Cell Titer Glo)
1 | CNCCOc1cccc(C(=O)NCC(O)CN2CCc3ccccc3C2)c1 (stereo not drawn) [Compound 39] | 101 to 1000 nM | 1000 to 10000 nM |  |  | > 20000 nM | 
2 | CCNCCOc1ccc(C(=O)NC[C@H](O)CN2CCc3ccccc3C2)cc1 [Compound 391] | < 100 nM | < 100 nM |  |  | 1000 to 10000 nM | 
3 | O=C(NC[C@H](O)CN1CCc2ccccc2C1)c1ncnc(NC2COC2)c1F [Compound 422] |  |  | < 100 nM | < 100 nM |  | 1000 to 10000 nM
4 | Cc1ncc(NC2CCNC2)cc1C(=O)NC[C@H](O)CN1CCc2ccccc2C1 (stereo partly drawn) [Compound 310] | < 100 nM | < 100 nM |  |  | 101 to 1000 nM | 
5 | CC(=O)N1CC(Nc2cc(C(=O)NC(C)C(O)CN3CCc4ccccc4C3)ncn2)C1 (stereo not drawn) [Compound 524] |  |  | 101 to 1000 nM | 101 to 1000 nM |  | > 5000 nM
6 | CN1CCN(c2nc(NC3COC3)cc(C(=O)NC[C@H](O)CN3CCc4ccccc4C3)n2)CC1 [Compound 394] | < 100 nM | < 100 nM |  |  | < 100 nM | 
7 | CC(NC(=O)c1cc(NC2COC2)ncn1)[C@@H](O)CN1CCc2ccccc2C1 (stereo partly drawn) [Compound 492] |  |  | < 100 nM | < 100 nM |  | 1000 to 10000 nM
8 | CC(NC(=O)c1cc(NC2CCNCC2)ncn1)C(O)CN1CCc2ccccc2C1 (stereo not drawn) [Compound 534] |  |  | 101 to 1000 nM | > 1000 nM |  | > 5000 nM
9 | COCCN1CC(Nc2ccnc(C(=O)NC[C@H](O)CN3CCc4ccccc4C3)c2)C1 [Compound 576] |  |  | < 100 nM | < 100 nM |  | 1000 to 10000 nM
10 | O=C(NC[C@H](O)CN1CCc2ccccc2C1)c1cccc2ccccc12 [Compound 295] | < 100 nM | < 100 nM |  |  | 1000 to 10000 nM | 
11 | NS(=O)(=O)c1cccc(C(=O)NCC(O)CN2CCc3ccccc3C2)c1 (stereo not drawn) [Compound 32] | 101 to 1000 nM | 101 to 1000 nM |  |  | > 20000 nM | 
12 | Cc1c(NC2COC2)ncnc1C(=O)NC[C@H](O)CN1CCc2ccccc2C1 [Compound 604] |  |  | < 100 nM | 101 to 1000 nM |  | 1000 to 10000 nM
13 | CN(CCO)c1nc(NC2COC2)cc(C(=O)NC[C@H](O)CN2CCc3ccccc3C2)n1 [Compound 495] |  |  | < 100 nM | < 100 nM |  | 101 to 1000 nM
14 | COCCN(C)c1nc(NC2COC2)cc(C(=O)NC[C@H](O)CN2CCc3ccccc3C2)n1 [Compound 460] |  |  | < 100 nM | < 100 nM |  | < 100 nM
15 | O=C(NC[C@H](O)CN1CCc2ccccc2C1)c1ncnc(NC2COC2)c1Cl [Compound 437] |  |  | < 100 nM | < 100 nM |  | 1000 to 10000 nM
16 | CC(C)NCCCOc1ccc(C(=O)NC[C@H](O)CN2CCc3ccccc3C2)cc1 [Compound 374] | < 100 nM | < 100 nM |  |  | 1000 to 10000 nM | 
17 | O=C(NC[C@H](O)CN1CCc2ccccc2C1)c1cc(NC2CNC2)nc(N2CCOCC2)n1 [Compound 447] |  |  | < 100 nM | < 100 nM |  | 1000 to 10000 nM
18 | CSCCN1CC(Nc2cc(C(=O)NC[C@H](O)CN3CCc4ccccc4C3)ncn2)C1 [Compound 568] |  |  | < 100 nM | 101 to 1000 nM |  | 1000 to 10000 nM
19 | Cc1cnc(NC2CN(S(C)(=O)=O)C2)cc1C(=O)NC[C@H](O)CN1CCc2ccccc2C1 [Compound 379] | < 100 nM | < 100 nM |  |  | 1000 to 10000 nM | 
20 | CC(C(O)CNC(=O)c1cc(NC2COC2)ncn1)N1CCc2ccccc2C1 (stereo not drawn) [Compound 607] |  |  | 1000 to 10000 nM | > 1000 nM |  | > 5000 nM
21 | CC(=O)N1CC(Nc2cc(C(=O)NCCCN3CCc4ccccc4C3)ncn2)C1 [Compound 652] |  |  | < 100 nM | 101 to 1000 nM |  | > 5000 nM
22 | O=C(NC[C@H](O)CN1CCc2ccccc2C1)c1cc(NC2CNC2)nc(C(F)(F)F)n1 [Compound 456] |  |  | < 100 nM | 101 to 1000 nM |  | 101 to 1000 nM
23 | CN(C)CCOc1ccc2cc(C(=O)NC[C@H](O)CN3CCc4ccccc4C3)ccc2c1 [Compound 370] | < 100 nM | < 100 nM |  |  | 1000 to 10000 nM | 
24 | COC(CNC(=O)c1cc(NC2COC2)ncn1)CN1CCc2ccccc2C1 (stereo not drawn) [Compound 523] |  |  | 1000 to 10000 nM | > 1000 nM |  | > 5000 nM
25 | CN1CCC(Nc2cc(C(=O)NCC(C)(O)CN3CCc4ccccc4C3)ncn2)CC1 (stereo not drawn) [Compound 648] |  |  | 1000 to 10000 nM | > 1000 nM |  | > 5000 nM
26 | NC(=O)c1ccc(C(=O)NCC(O)CN2CCc3ccccc3C2)cc1 (stereo not drawn) [Compound 22] | 101 to 1000 nM | 101 to 1000 nM |  |  | > 20000 nM | 

Second part, led by results:

Row | IC50 (PRMT5/MEP50) | EC50 [1] | IC50 (PRMT5/MEP50; PRMT5 biochemical assay) | EC50 ([1]; In Cell Western methylation) | Compound | EC50 (Z-138 cell line) | EC50 (Z-138 cell line; Cell Titer Glo)
27 |  |  | < 100 nM | < 100 nM | Cc1cnc(NC2CCN(CC(F)(F)F)C2)cc1C(=O)NC[C@H](O)CN1CCc2ccccc2C1 (stereo partly drawn) [Compound 402] |  | 1000 to 10000 nM
28 |  |  | < 100 nM | < 100 nM | O=C(NC[C@H](O)CN1CCc2ccccc2C1)c1ccnc(NC2CCN(C(=O)C3CC3)CC2)c1 [Compound 472] |  | < 100 nM
29 |  |  | < 100 nM | < 100 nM | O=C(NC[C@H](O)CN1CCc2ccccc2C1)c1cc(N[C@H]2C[C@H](C(=O)N3CCCCC3)C2)ncn1 [Compound 511] |  | < 100 nM
30 |  |  | < 100 nM | < 100 nM | O=C(NC[C@H](O)CN1CCc2ccccc2C1)c1cc(NC2COC2)nc(N2CCC2)n1 [Compound 526] |  | 101 to 1000 nM
31 |  |  | < 100 nM | < 100 nM | CC(=O)N1CCC(Nc2cc(C(=O)NC[C@H](O)CN3CCc4ccccc4C3)cc(N3CCN(C(C)=O)CC3)n2)CC1 [Compound 613] |  | 101 to 1000 nM
32 |  |  | < 100 nM | < 100 nM | CC(=O)N1CCC(Nc2cc(C(=O)NCCCN3CCc4ccccc4C3)ncn2)CC1 [Compound 653] |  | 1000 to 10000 nM
33 |  |  | < 100 nM | < 100 nM | CCC(=O)N1CCC(Nc2cc(C(=O)NC[C@H](O)CN3CCc4ccccc4C3)ncn2)CC1 [Compound 406] |  | < 100 nM
34 |  |  | < 100 nM | 1000 to 10000 nM | NC(=O)CN1CC(Nc2cc(C(=O)NC[C@H](O)CN3CCc4ccccc4C3)ncn2)C1 [Compound 621] |  | 1000 to 10000 nM
35 |  |  | < 100 nM | < 100 nM | CC(=O)N1CCC(Nc2cc(C(=O)NC[C@H](O)CN3CCc4cc(C)ccc4C3)ncn2)CC1 [Compound 675] |  | 101 to 1000 nM
36 |  |  | < 100 nM | < 100 nM | CSCCN1CCC(Nc2cc(C(=O)NC[C@H](O)CN3CCc4ccccc4C3)ncn2)CC1 [Compound 639] |  | 1000 to 10000 nM
37 |  |  | < 100 nM | < 100 nM | CCCC(=O)N1CC(Nc2cc(C(=O)NC[C@H](O)CN3CCc4ccccc4C3)ncn2)C1 [Compound 415] |  | < 100 nM
38 |  |  | < 100 nM | < 100 nM | CC(=O)N1CCC(Nc2cc(C(=O)NC[C@H](O)CN3CCc4ccccc4C3C)ccn2)CC1 (stereo partly drawn) [Compound 694] |  | 101 to 1000 nM
39 |  |  | < 100 nM | 101 to 1000 nM | O=C(NC[C@H](O)CN1CCc2ccccc2C1)c1cc(NC2CNC2)nc(N2CCC2)n1 [Compound 502] |  | 1000 to 10000 nM
40 |  |  | < 100 nM | < 100 nM | O=C(NC[C@H](O)CN1CCc2ccccc2C1)c1ccnc(NC2CN(C(=O)C3CCC3)C2)c1 [Compound 530] |  | < 100 nM
41 |  |  | < 100 nM | < 100 nM | CN(C)C(=O)CN1CCC(Nc2cc(C(=O)NC[C@H](O)CN3CCc4ccccc4C3)ncn2)CC1 [Compound 567] |  | 101 to 1000 nM
42 | < 100 nM | > 1000 nM |  |  | O=C(NC[C@H](O)CN1CCc2ccccc2C1)c1ccnc(NC2COC2)c1 [Compound 378] | > 20000 nM | 
43 |  |  | < 100 nM | 101 to 1000 nM | COC(CNC(=O)c1cc(NC2CCN(C(=O)C3CC3)CC2)ncn1)CN1CCc2ccccc2C1 (stereo not drawn) [Compound 553] |  | > 5000 nM
44 |  |  | < 100 nM | < 100 nM | CN(C)C(=O)[C@H]1C[C@H](Nc2cc(C(=O)NC[C@H](O)CN3CCc4ccccc4C3)ncn2)C1 [Compound 507] |  | 101 to 1000 nM
45 | < 100 nM | < 100 nM |  |  | O=C(NC[C@H](O)CN1CCc2ccccc2C1)c1ccnc(OC2CCC2)c1 [Compound 350] | 101 to 1000 nM | 
46 |  |  | < 100 nM | < 100 nM | O=C(NC[C@H](O)CN1CCc2ccccc2C1)c1cc(N[C@H]2CC[C@H](O)CC2)ncn1 [Compound 585] |  | 101 to 1000 nM
47 |  |  | < 100 nM | < 100 nM | CC(=O)N1CCC(Nc2cc(C(=O)NC[C@H](O)CN3CCc4cc(C)ccc4C3)ccn2)CC1 [Compound 682] |  | 101 to 1000 nM
48 |  |  | < 100 nM | 101 to 1000 nM | O=C(NC[C@H](O)CN1CCc2ccccc2C1)c1cc(NC2CCNCC2)ccn1 [Compound 549] |  | > 5000 nM
49 | < 100 nM | < 100 nM |  |  | CC(=O)N1CCC(Oc2cncc(C(=O)NC[C@H](O)CN3CCc4ccccc4C3)c2)CC1 [Compound 304] | 1000 to 10000 nM | 
50 |  |  | < 100 nM | < 100 nM | N[C@H]1CC[C@@H](Nc2cc(C(=O)NC[C@H](O)CN3CCc4ccccc4C3)ncn2)CC1 [Compound 591] |  | 1000 to 10000 nM
51 |  |  | < 100 nM | < 100 nM | CC(C)CC(=O)N1CCC(Nc2cc(C(=O)NC[C@H](O)CN3CCc4ccccc4C3)ccn2)CC1 [Compound 471] |  | < 100 nM
52 |  |  | < 100 nM | < 100 nM | O=C(NC[C@H](O)CN1CCc2ccccc2C1)c1ccnc(NC2CN(C(=O)C3CC3)C2)c1 [Compound 490] |  | < 100 nM

Source: US10307413B2, “Tetrahydro- and dihydro-isoquinoline PRMT5 inhibitors and uses thereof” (Epizyme, Inc., priority 2013, dated 2019)
